Laboratory results: patent US8124582B2, “Treatment of diabetes” (FibroGen, Inc., priority 2002, dated 2012)

Tests used:
[1] = system: aldolase; test: Aldolase protein expression in 293A cells (Western blot); type: cell-based, Human; conditions: FIG. 1A
Procedure: The effect of compounds of the present invention on expression of proteins and genes involved in glucose regulation and metabolism as follows. Human 293A cells (adenovirus-transformed fetal kidney epithelium) were plated confluent in 35 mm culture dishes and cultured for 1 day at 37° C., 10% CO2 in DMEM containing 5% FBS and 1% penicillin-streptomycin. The media was changed to Opti-Mem I and incubation was continued for an additional 18 to 24 hours. Vehicle control or compound B was then added to the media and cells were incubated for an additional 24, 48 or 72 hours. Plates were placed on ice, culture supernatant was removed, and lysis buffer-1 (LB-1: 10 mM Tris pH 7.4, 1 mM EDTA, 150 mM sodium chloride, 0.5% IGEPAL) was added. Cell lysates were harvested by scraping, incubated for 15 minutes on ice, and then fractionated by centrifugation at 3000×g for 5 minutes at 4° C. The supernatant, which represented the cytosolic fraction, was collected and cytosolic proteins were separated under reducing conditions using SDS-polyacrylamide gel electrophoresis (SDS-PAGE) with equal amounts of protein loaded per lane.
SDS-PAGE was conducted at 150 V for 2 hours, after which the proteins were transferred to a PVDF membrane at 400 mA for 1.5 hours at 4° C. […]

[2] = system: PFK-P, PFK-L, enolase-1, GluT-1, lactate dehydrogenase-1, aldolase-1, hexokinase-1; test: In vivo expression of genes encoding enzymes involved in glucose regulation (microarray, time course); parameters: species or system Swiss Webster male mice; conditions: mice, 100 mg/kg oral gavage
Procedure: To determine gene induction patterns over time, twenty four Swiss Webster male mice (30-32 g) were obtained from Simonsen, Inc. and treated by oral gavage with a 4 ml/kg volume of either 0.5% carboxymethyl cellulose (CMC; Sigma-Aldrich, St. Louis Mo.) (0 mg/kg/day) or […] compound B (25 mg/ml in 0.5% CMC) (100 mg/kg). At 4, 8, 16, 24, 48, or 72 hours after the final dose, animals were anesthetized with isoflurane. The mice were then sacrificed and tissue samples of kidney, liver, brain, lung, and heart were isolated and stored in RNALATER solution (Ambion) at −80° C.
(§1) RNA from tissues obtained from the experiments described above was isolated using the following protocol. A 50 mg section of each organ was diced, 875 μl of RLT buffer (RNEASY kit; Qiagen Inc., Valencia Calif.) was added, and the pieces were homogenized for about 20 seconds using a rotor-stator POLYTRON homogenizer (Kinematica, Inc., Cincinnati Ohio). […] The RNA was eluted into 80 μL of water and quantitated with RIBOGREEN reagent (Molecular Probes, Eugene Oreg.). […] The absorbance at 260 and 280 nm was measured to determine RNA purity and concentration.
(§2) Alternatively, tissue samples were diced and homogenized in TRIZOL reagent (Invitrogen Life Technologies, Carlsbad Calif.) using a rotor-stator POLYTRON homogenizer (Kinematica). […] The absorbance at 260 and 280 nm was measured to determine RNA purity and concentration. […]

[3] = system: GluT-1; test: In vivo GluT-1 gene expression in kidney, dose response (microarray); parameters: species or system Swiss Webster male mice; conditions: mice, low dose (30 mg/ml) or high dose (100 mg/ml), oral gavage once per day for 4 days; FIG. 3A
Procedure: To investigate the dose response of compounds of the present invention, twelve Swiss Webster male mice (30-32 g) (obtained from Simonsen, Inc., Gilroy Calif.) were treated by oral gavage once per day for 4 days with a 4 ml/kg volume of either 0.5% carboxymethyl cellulose (CMC; Sigma-Aldrich, St. […] Four hours after the final dose, animals were anesthetized, sacrificed, and approximately 150 mg of liver and each kidney were isolated and stored in RNALATER solution (Ambion) at −20° C.
as §1, §2

O=C(O)CNC(=O)c1nc(Cl)c2ccccc2c1O [compound B, [(1-Chloro4-hydroxy-isoquinoline-3-carbonyl)-amino]-acetic acid]
aldolase expression ([1]; 293A cells treated for 24, 48, and 72 hours, vs vehicle control): increased over time
β-tubulin expression ([1]; 293A cells, specificity control): no increases
expression of genes encoding enzymes involved in glucose regulation ([2]; kidney, liver, lung, 4-72 hours after dose, FIGS. 2A-2C): increased in a coordinated fashion
time after which most mRNA levels returned to control levels ([2]; time course): 24 to 48 h
expression of the gene encoding GluT-1 in kidney [3]: dose-dependent alteration
